Here are results for 2 compounds from US20110269786A1, “TREATMENT OF MAJOR ADVERSE CARDIAC EVENTS AND ACUTE CORONARY SYNDROME IN DIABETIC PATIENTS USING SECRETORY PHOSPHOLIPASE A2 (SPLA2) INHIBITOR OR SPLA2 INHIBITOR COMBINATION THERAPIES” (priority 2010, published 2011).

Molecules are shown by their SMILES.

The conditions of data set [1]: in vivo; cited from earlier work.
For data set [2] the following is noted: cited from earlier work.
The nature of data set [3]: Clinical trial in post-ACS subjects: MACE occurrence in diabetic subpopulation. Particulars: cumulative at 16 weeks.
Description: 625 adult (18 years of age or older) human subjects who had recently experienced an index ACS event (UA, NSTEMI, or STEMI) were randomized to receive placebo or A-002 at 500 mg once daily via oral administration in a double-blinded manner. A-002 was delivered in the form of two 250 mg tablets. In addition, all subjects received atorvastatin at 80 mg once daily via oral administration of a single tablet.
Subjects were excluded if they were receiving statin therapy at maximum recommended or tolerated dosage (i.e., 40-80 mg QD for atorvastatin, fluvastatin, lovastatin, pravastatin, or simvastatin, or 20-40 mg QD rosuvastatin) at the time of the index ACS event. During the trial, subjects were prevented from using any lipid-lowering therapy other than 80 mg atorvastatin and/or A-002.
For purposes of this study, MACEs included all-cause mortality, non-fatal MI, documented UA requiring urgent hospitalization, revascularization occurring 60 days or more after the initial index ACS event, and non-fatal stroke. Subjects were evaluated at various timepoints after randomization and at study completion. Each evaluation included measurement of serum LDL levels and recordation of any MACEs or less severe adverse events occurring since the previous evaluation. In addition, certain evaluation periods included measurement of one or more of hs-CRP, sPLA2, IL-6, and/or other biomarker levels, vital signs, weight, and/or waist circumference. […] This final evaluation included at least a complete physical examination, a 12-lead ECG reading, measurement of LDL, hs-CRP, sPLA2, and IL-6 levels, and recordation of any MACEs during the study period.
For data set [4] the following is noted: 80 mg atorvastatin; subjects that had recently experienced an ACS event; cited from earlier work.
The nature of data set [5]: Clinical trial in post-ACS subjects: MACE occurrence in ITT population. Format: in vivo, human. Particulars: at 16 weeks. Here is the method:
A-002 was delivered in the form of two 250 mg tablets. In addition, all subjects received atorvastatin at 80 mg once daily via oral administration of a single tablet.
Subjects were randomized within 96 hours of hospital admission for an index ACS event, or within 96 hours of index ACS event diagnosis if already hospitalized. Prior to randomization, subjects were screened for pertinent medical history, and baseline levels of LDL and hs-CRP were measured. Baseline sPLA2 levels were also measured in a random subset of subjects. Percutaneous revascularization, if required or planned for a particular subject, was performed prior to randomization.
Subjects were excluded if they were receiving statin therapy at maximum recommended or tolerated dosage (i.e., 40-80 mg QD for atorvastatin, fluvastatin, lovastatin, pravastatin, or simvastatin, or 20-40 mg QD rosuvastatin) at the time of the index ACS event. […]
For purposes of this study, MACEs included all-cause mortality, non-fatal MI, documented UA requiring urgent hospitalization, revascularization occurring 60 days or more after the initial index ACS event, and non-fatal stroke. […] This final evaluation included at least a complete physical examination, a 12-lead ECG reading, measurement of LDL, hs-CRP, sPLA2, and IL-6 levels, and recordation of any MACEs during the study period.

Take `CCc1c(C(=O)C(N)=O)c2c(OCC(=O)OC)cccc2n1Cc1ccccc1` [A-002, [[3-(2-Amino-1,2-dioxoethyl)-2-ethyl-1-(phenylmethyl)-1H-indol-4-yl]oxy]acetic acid methyl ester]: in data set [1], the “absorption and conversion to active molecule” value is “rapidly absorbed and hydrolyzed to the active A-001 molecule”; the “terminal half-life (t1/2)” value is recorded as “approximately ten”. Besides, in data set [2] (once- or twice-daily administration, stable CVD population, diabetic and high baseline LDL-C subpopulations), the “effect on total cholesterol, LDL-C, total LDL-C particle, and small LDL-C particle levels” value was “decreases”. Further, in data set [2] (stable populations), the “effect on levels of inflammatory markers such as hs-CRP and sPLA2” value is “decreases”.
Regarding `CC(C)c1c(C(=O)Nc2ccccc2)c(-c2ccccc2)c(-c2ccc(F)cc2)n1CC[C@@H](O)C[C@@H](O)CC(=O)O` [Placebo (atorvastatin only), atorvastatin], in data set [3], the “Death, % of subjects” value is on record as 3.4%; the “Death, number of subjects” value was 3; the “MI, % of subjects” value was found to be 0.0%; the “MI, number of subjects” value is given as 0. In data set [3], the “Revascularization ≧ 60 days, % of subjects” value is 0.0%; the “Revascularization ≧ 60 days, number of subjects” value is reported as 0; the “Stroke, % of subjects” value was 0.0%; the “Stroke, number of subjects” value was 0. Also, in data set [3], the “Total MACEs, % of subjects” value is reported as 6.9%; the “UA requiring hospitalization, % of subjects” value was determined as 3.4%; the “UA requiring hospitalization, number of subjects” value amounted to 3. Also, in data set [4], the “absolute reduction in death, non-fatal MI, cardiac arrest with resuscitation, or worsening symptomatic myocardial ischemia” value is listed as 2.6% and the “relative reduction in death, non-fatal MI, cardiac arrest with resuscitation, or worsening symptomatic myocardial ischemia” value is 16%. The “% of subjects who experienced a MACE” value in data set [5] stood at 6.1%.
